Data reported in publication PMC6832651, “Design, Synthesis and Investigation of the Potential Anti-Inflammatory Activity of 7-O-Amide Hesperetin Derivatives” (Molecules, 2019).

What was measured:
[1] = system: LPS-induced NO production in RAW264.7 cells; assay: Inhibition of LPS-induced NO production (Griess reagent); format: cell-based; settings: Mus musculus, 10 μM compound, 1 h pretreatment, then LPS (1 μg/mL) 24 h, mean ± SD (n = 3)
[2] = system: LPS-induced NO production in RAW264.7 cells; assay: as above; format: cell-based, mouse; settings: for IC50: Mus musculus, 1 h pretreatment, then LPS 24 h, mean ± SD (n = 3); for LPS-induced NO release: LPS-stimulated, result in words
Experimental: NO is an important inflammatory mediator and is overproduced and secreted out of mouse macrophages in response to bacterial lipopolysaccharide. To evaluate the anti-inflammatory activity of hesperetin derivatives, the secretion level of NO was detected in the medium of RAW264.7 cells after LPS stimulated with Griess reagent. Before the cells were treated with LPS (1 μg/mL) for 24 h, pretreatment with the compounds for 1 hour. […] All hesperetin derivatives could decrease the release of NO induced by LPS. […] While extended the length of the amide side chain and the inhibitory activities increased (4d > 4c > 4a; 4e > 4b). […] On the other hand, the cavity was medium-sized, large enough to accommodate cyclopentyl and propyl groups, but not enough to accommodate cyclohexyl and butyl ones (4a < 4b < 4d > 4f; 4k > 4l).
Nitrite levels were determined using the Griess method for NO has a short half-life and is oxidized to stable nitrite. RAW 264.7 cells were plated at a density of 2 × 10^5 per well in a 24-well culture plate and incubated in a 37 °C humidified incubator (5% CO2). After overnight Cultured, discarded the supernatant, added pre-configured compounds of different concentrations to the 24-well plate, and added the same one-thousandth of the DMSO solvent as the control to the experimental group for 1 h. Then LPS was added to experimental and model groups at a concentration of […] for 24 h compared to vehicle control. Following treatment, media was collected and centrifuged at 2000 rpm for 5 min to remove cellular debris. The medium from treated cells was removed and placed into a 96-well plate (50 µL per well) and was measured in culture supernatant using Griess reagent at 540 nm. The IC50 values of compounds were calculated by SPSS23.

Row | SMILES | IC50 [2] [µM] | melting point [°C] | inhibition at 10 µM [1] [%] | LPS-induced NO release [2]
1 | Cc1ccc(-c2cc(C(F)(F)F)nn2-c2ccc(S(N)(=O)=O)cc2)cc1 [Cel, celecoxib, reference compound] | 26.4 ± 0.46 | – | 14.5 ± 3.61 | –
2 | COc1ccc([C@@H]2CC(=O)c3c(O)cc(OCC(=O)N4CCN(C)CC4)cc3O2)cc1O [Compound 6d, 7-O-(2-(4-Methylpiperazin-1-yl)-2-oxoethyl)hesperetin] | – | 167.3 to 170.1 | – | –
3 | COc1ccc([C@@H]2CC(=O)c3c(O)cc(OCC(=O)N4CCCCC4CO)cc3O2)cc1O (some centres unmarked) [Compound 6c, 7-O-(2-(2-(Hydroxymethyl)piperidin-1-yl)-2-oxoethyl)hesperetin] | 40.6 ± 5.56 | 123.2 to 125.8 | 9.1 ± 3.67 | –
4 | COc1ccc2c(c1)c(CC(=O)O)c(C)n2C(=O)c1ccc(Cl)cc1 [Ind, indomethacin, reference compound] | 35.3 ± 8.07 | – | 12.9 ± 3.09 | –
5 | CCN1CCN(C(=O)COc2cc(O)c3c(c2)O[C@H](c2ccc(OC)c(O)c2)CC3=O)CC1 [Compound 6e, 7-O-(2-(4-Ethylpiperazin-1-yl)-2-oxoethyl)hesperetin] | – | 160.7 to 162.9 | – | –
6 | COc1ccc([C@@H]2CC(=O)c3c(O)cc(OCC(=O)N4CCCCC4)cc3O2)cc1O [Compound 6a, 7-O-(2-(piperidin-1-yl)-2-oxoethyl)hesperetin] | 23.4 ± 1.64 | 165.4 to 167.9 | 30.2 ± 4.67 | significantly alleviated the increase of LPS-induced NO release
7 | COc1ccc([C@@H]2CC(=O)c3c(O)cc(OCC(=O)N4CCSC4)cc3O2)cc1O [Compound 5b, 7-O-(2-(Thiazolidin-3-yl)-2-oxoethyl)hesperetin] | 30 ± 0.43 | 152.4 to 154.7 | 22.7 ± 5.71 | –
8 | COc1ccc([C@@H]2CC(=O)c3c(O)cc(OCC(=O)N4CCOCC4)cc3O2)cc1O [Compound 6f, 7-O-(2-Morpholino-2-oxoethyl)hesperetin] | 32.6 ± 1.51 | 188.7 to 189.3 | 21 ± 0.31 | –

More lines, main results first:

Row | IC50 [2] [µM] | melting point [°C] | SMILES | inhibition at 10 µM [1] [%] | LPS-induced NO release [2]
9 | 30.5 ± 1.66 | 146.3 to 147.8 | CCN(CC)C(=O)COc1cc(O)c2c(c1)O[C@H](c1ccc(OC)c(O)c1)CC2=O [Compound 4i, 7-O-(2-(Diethylamino)-2-oxoethyl)hesperetin] | 17.5 ± 2.33 | –
10 | 38.5 ± 2 | 179.8 to 182.7 | CNC(=O)COc1cc(O)c2c(c1)O[C@H](c1ccc(OC)c(O)c1)CC2=O [Compound 4a, 7-O-(2-(Methylamino)-2-oxoethyl)hesperetin] | 16 ± 0.06 | –
11 | 42 ± 6.15 | 140.5 to 142.4 | COc1ccc([C@@H]2CC(=O)c3c(O)cc(OCC(=O)NC(C)(C)C)cc3O2)cc1O [Compound 4h, 7-O-(2-(tert-Butylamino)-2-oxoethyl)hesperetin] | 17.5 ± 1.33 | –
12 | 29.7 ± 3.06 | 136.9 to 138.4 | CCCCNC(=O)COc1cc(O)c2c(c1)O[C@H](c1ccc(OC)c(O)c1)CC2=O [Compound 4f, 7-O-(2-(Butylamino)-2-oxoethyl)hesperetin] | 18 ± 0.82 | –
13 | 28.4 ± 5.33 | 183.8 to 185.7 | COc1ccc([C@@H]2CC(=O)c3c(O)cc(OCC(=O)NCCO)cc3O2)cc1O [Compound 7a, 7-O-(2-((2-Hydroxyethyl)amino)-2-oxoethyl)hesperetin] | 15 ± 1.99 | –
14 | 32.5 ± 2.46 | 164.1 to 165.8 | COc1ccc([C@@H]2CC(=O)c3c(O)cc(OCC(=O)N(C)C)cc3O2)cc1O [Compound 4c, 7-O-(2-(Dimethylamino)-2-oxoethyl)hesperetin] | 13.5 ± 1.63 | –
15 | 24.59 ± 0.22 | 136.9 to 139.4 | COc1ccc([C@@H]2CC(=O)c3c(O)cc(OCC(=O)NCC(C)C)cc3O2)cc1O [Compound 4g, 7-O-(2-(Isobutylamino)-2-oxoethyl)hesperetin] | 23.5 ± 0.74 | significantly alleviated the increase of LPS-induced NO release
